This is an account of results in US4981792A, “Immunosuppressant compound” (Merck & Co., Inc., priority 1988, dated 1991).

The subject of one test is mouse T lymphocytes. Description: T-cell proliferation assay (ionomycin plus PMA induced, tritiated thymidine uptake). In kind it is cell-based, mouse (C57Bl/6). How it is done: The principle of this assay is to measure the proliferation of mouse T lymphocytes stimulated with the combination of ionomycin plus PMA. A positive sample in this assay will inhibit T-cell proliferation, as indicated by reduced tritiated thymidine uptake.
Purified demethomycin, as prepared by HPLC above, was dissolved in absolute ethanol at 1 mg/ml.
Spleens from C57Bl/6 mice were taken under sterile conditions and gently dissociated in ice-cold RPMI 1640 culture medium (GIBCO, Grand Island, N.Y.) supplemented with 10% heat-inactivated fetal calf serum (GIBCO). Cells were pelleted by centrifugation at 1500 rpm for 8 minutes. Contaminating red cells were removed by treating the pellet with ammonium chloride lysing buffer (GIBCO) for 2 minutes at 4° C. Cold medium was added and cells were again centrifuged at 1500 rpm for 8 minutes. T lymphocytes were then isolated by separation of the cell suspension on nylon wool columns as follows: Nylon wool columns were prepared by packing approximately 4 grams of washed and dried nylon wool into 20 ml plastic syringes. The columns were sterilized by autoclaving at 250° F. for 30 minutes. Nylon wool columns were wetted with warm (37° C.) culture medium and rinsed with the same medium. Washed spleen cells resuspended in warm medium were slowly applied to the nylon wool. The columns were then incubated in an upright position at 37° C. for 1 hour. Non-adherent T lymphocytes were eluted from the columns with warm culture medium and the cell suspensions were spun as above.
Purified T lymphocytes were resuspended at 2.5×10^5 cells/ml in complete culture medium composed of RPMI 1640 medium with 10% neat-inactivated fetal calf serum, […], 1 mM sodium pyruvate, 2×10^-5 M 2-mercaptoethanol and 50 μg/ml gentamycin. Ionomycin was added at 250 ng/ml and PMA at 10 ng/ml. The cell suspension was immediately distributed into 96 well flat-bottom microculture plates (Costar) at 200 μl/well. The control, being the medium without test drug, and various below-indicated dilutions of the sample (above-describedpurified demethomycin; to be tested were then added in triplicate wells at 20 μl/well. L-679,934 was used as a standard. The culture plates were then incubated at 37° C. in a humidified atmosphere of 5% CO2 -95% air for 44 hours. The proliferation of T lymphocytes was assessed by measurement of tritiated thymidine incorporation. After 44 hours of culturing, the cells were pulse-labelled with 2 μCi/well of tritiated thymidine (NEN, Cambridge, MA). After another 4 hours of incubation, cultures were harvested on glass fiber filters using a multiple sample narvester. Radioactivity of filter discs corresponding to individual wells was measured by standard liquid scintillation counting methods (Betacounter). Mean counts per minute of replicate wells were calculated and the results expressed as percent inhibition of tritiated thymidine uptake (proliferation) as follows: [formula]
1. Mouse T cell cultures were pulsed with ^3 Hthymidine for 4 hours
prior to harvesting at 48 hours.

The conditions of test [1]: reputed; immunosuppressant, vs cyclosporin; cited from earlier work.

Several values for one entry are separate records, joined by “and”; a condition that tells them apart may be missing. Equal values may be shown once. Entries after “also recorded” stand apart in the source; their conditions may differ. Read-outs that look alike come from different tables or passages of the source.

`C=CC[C@@H]1/C=C(\C)C[C@H](C)C[C@H](OC)[C@H]2O[C@@](O)(C(=O)C(=O)N3CCCC[C@H]3C(=O)O[C@H](/C(C)=C/[C@@H]3CC[C@@H](O)[C@H](O)C3)[C@H](C)[C@@H](O)CC1=O)[C@H](C)C[C@@H]2OC` [demethomycin, 31-desmethoxy-31-hydroxy-L-679,934]: in the test on mouse T lymphocytes (50 μ/ml of IL2 (recombinant IL2) added at initiation of culture), the “Reversal of inhibition of T-cell proliferation by recombinant IL2” value was “reversed”. In the test with mouse T lymphocytes (Mus musculus, T-lymphocyte, 0.29 ng/ml, harvest at 48 hours), the inhibition at 0.00029 µg/mL was determined as 0%. For the same molecule, the inhibition at 0.00044 µg/mL in the test with mouse T lymphocytes (Mus musculus, T-lymphocyte, 0.44 ng/ml, harvest at 48 hours) was 0%. In addition, in the test on mouse T lymphocytes (Mus musculus, T-lymphocyte, 0.66 ng/ml, harvest at 48 hours), the inhibition at 0.00066 µg/mL amounted to 36.8%. In addition, in the test on mouse T lymphocytes (Mus musculus, T-lymphocyte, 0.99 ng/ml, harvest at 48 hours), the inhibition at 0.00099 µg/mL came to 67.1%. Moreover, the inhibition at 0.0015 µg/mL in the test with mouse T lymphocytes (Mus musculus, T-lymphocyte, 1.5 ng/ml, harvest at 48 hours) stood at 80.5%. Moreover, the inhibition at 0.0022 µg/mL in the test with mouse T lymphocytes (Mus musculus, T-lymphocyte, 2.2 ng/ml, harvest at 48 hours) turned out to be 92.9%. For the same molecule, the inhibition at 0.0033 µg/mL in the test on mouse T lymphocytes (Mus musculus, T-lymphocyte, 3.3 ng/ml, harvest at 48 hours) was 97.2%. Also, the inhibition at 0.005 µg/mL in the test with mouse T lymphocytes (Mus musculus, T-lymphocyte, 5 ng/ml, harvest at 48 hours) was 98.1%. In addition, the 50% inhibitory concentration (IC50) with mouse T lymphocytes (Mus musculus, T-lymphocyte, T-cell proliferation, harvest at 48 hours, read-out: IC50) is 0.00086 µg/mL and 1.09 nM; in the test with mouse T lymphocytes (Mus musculus, T-lymphocyte, generally in the range, read-out: IC50, general range), 0.6 to 1.2 nM. Further, in the test on mouse T lymphocytes (T-cell proliferation assay), the “immunosuppressive activity / inhibition of T-cell activation (qualitative)” value is “positive inhibition of T-cell activation; also recorded: positive immunosuppressive activity”.
Consider `C=CC[C@@H]1/C=C(\C)C[C@H](C)C[C@H](OC)[C@H]2O[C@@](O)(C(=O)C(=O)N3CCCC[C@H]3C(=O)O[C@H](/C(C)=C/[C@@H]3CC[C@@H](O)[C@H](OC)C3)[C@H](C)[C@@H](O)CC1=O)[C@H](C)C[C@@H]2OC` [L-679,934, reference compound], for which the inhibition at 0.01 µg/mL with mouse T lymphocytes (Mus musculus, T-lymphocyte, read-out: % inhibition of T-cell proliferation (standard)) is 99%. Further, the “effectiveness relative to cyclosporin” value in test [1] is 100 times.
